Measurements: doi:10.1101/641969v1 (biorxiv, 2019)

Key:
PmCntL = target: T1, PmCntL (Paenibacillus mucilaginosus, UniProt H6NF62); experiment: TLC of products from carboxyl-[…]-labeled SAM; format: biochemical; details: 10 µM D-histidine, 2.5 µM [14C]SAM, pH 9, 28 °C, 30 min
T1 sequence (H6NF62 1-276): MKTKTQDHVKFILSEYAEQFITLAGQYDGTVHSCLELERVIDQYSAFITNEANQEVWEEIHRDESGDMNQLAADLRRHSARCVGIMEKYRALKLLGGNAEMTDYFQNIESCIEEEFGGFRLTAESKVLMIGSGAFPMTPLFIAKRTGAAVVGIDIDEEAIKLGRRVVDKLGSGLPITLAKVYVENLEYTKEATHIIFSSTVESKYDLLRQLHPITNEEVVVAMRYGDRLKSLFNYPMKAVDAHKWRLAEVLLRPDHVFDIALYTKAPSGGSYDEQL

PmCntM = target: T2, PmCntM (Paenibacillus mucilaginosus, UniProt H6NF63); experiment: NADPH oxidation at […] nm, initial rates; format: biochemical
T2 sequence (H6NF63 1-440): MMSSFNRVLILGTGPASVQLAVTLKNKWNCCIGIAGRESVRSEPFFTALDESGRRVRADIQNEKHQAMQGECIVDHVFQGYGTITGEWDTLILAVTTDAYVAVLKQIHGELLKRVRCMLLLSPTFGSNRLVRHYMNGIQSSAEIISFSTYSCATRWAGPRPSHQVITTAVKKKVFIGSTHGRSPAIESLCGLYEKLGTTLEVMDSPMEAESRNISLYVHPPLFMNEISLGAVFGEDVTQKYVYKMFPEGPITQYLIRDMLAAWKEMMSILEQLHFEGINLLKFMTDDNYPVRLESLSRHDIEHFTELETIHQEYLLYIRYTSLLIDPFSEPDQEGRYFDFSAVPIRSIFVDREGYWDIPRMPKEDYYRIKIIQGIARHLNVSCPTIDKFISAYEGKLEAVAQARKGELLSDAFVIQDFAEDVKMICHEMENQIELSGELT

SaCntM [1] = target: T3, SaCntM (Staphylococcus aureus, UniProt A0A0H3JT80); experiment: NADPH oxidation at […] nm, initial rates, substrate inhibition model; format: biochemical; details: 0.2 mM NADPH, 1 mM pyruvate, pH 7, 28 °C
T3 sequence (A0A0H3JT80 1-433): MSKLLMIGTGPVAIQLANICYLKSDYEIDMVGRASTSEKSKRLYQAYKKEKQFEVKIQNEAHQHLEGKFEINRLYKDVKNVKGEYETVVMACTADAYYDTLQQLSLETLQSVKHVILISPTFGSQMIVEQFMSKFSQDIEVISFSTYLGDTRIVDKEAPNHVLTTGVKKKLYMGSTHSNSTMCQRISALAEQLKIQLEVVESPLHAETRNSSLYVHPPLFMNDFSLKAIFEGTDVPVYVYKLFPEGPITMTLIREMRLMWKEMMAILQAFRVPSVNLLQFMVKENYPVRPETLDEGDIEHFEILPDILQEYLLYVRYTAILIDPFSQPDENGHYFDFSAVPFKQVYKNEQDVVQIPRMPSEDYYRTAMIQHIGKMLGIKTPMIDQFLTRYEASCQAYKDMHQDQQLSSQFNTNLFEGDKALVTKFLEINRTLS

PaCntM [2] = target: T4, PaCntM (Pseudomonas aeruginosa, UniProt Q9HUX5); experiment: NADH oxidation at […] nm, initial rates, substrate inhibition model; format: biochemical; details: 0.2 mM NADH, 1 mM α-ketoglutarate, pH 8, 28 °C
T4 sequence (Q9HUX5 1-433): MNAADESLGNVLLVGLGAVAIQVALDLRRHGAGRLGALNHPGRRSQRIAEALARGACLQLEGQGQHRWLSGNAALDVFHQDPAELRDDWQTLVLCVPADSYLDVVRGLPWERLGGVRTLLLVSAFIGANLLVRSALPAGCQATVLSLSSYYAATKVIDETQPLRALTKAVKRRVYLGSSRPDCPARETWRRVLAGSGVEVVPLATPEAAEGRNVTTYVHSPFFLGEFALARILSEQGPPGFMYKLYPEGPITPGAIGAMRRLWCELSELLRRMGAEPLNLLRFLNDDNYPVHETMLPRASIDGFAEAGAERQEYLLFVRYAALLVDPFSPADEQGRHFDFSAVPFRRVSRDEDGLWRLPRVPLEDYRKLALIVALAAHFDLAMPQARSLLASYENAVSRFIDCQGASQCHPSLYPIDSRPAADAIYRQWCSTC

SaCntM [3] = target: T3, SaCntM; experiment: NADPH oxidation at […] nm, initial rates, substrate inhibition model; format: biochemical; details: 0.2 mM NADPH, 1 mM pyruvate, pH 7, 28 °C; remark: listed apart in the source
PaCntM [4] = target: T4, PaCntM; experiment: NADH oxidation at […] nm, initial rates, substrate inhibition model; format: biochemical; details: 0.2 mM NADH, 1 mM α-ketoglutarate, pH 8, 28 °C; remark: listed apart in the source
SaCntM [5] = target: T3, SaCntM; experiment: NADPH oxidation at […] nm, initial rates, Michaelis-Menten fit; format: biochemical; details: 0.2 mM NADPH, 1 mM pyruvate, pH 7, 28 °C
PaCntM [6] = target: T4, PaCntM; experiment: NADH oxidation at […] nm, initial rates, Michaelis-Menten fit; details: 0.2 mM NADH, 1 mM α-ketoglutarate, pH 8, 28 °C

| SMILES | TLC of products from carboxyl-[14C]-labeled SAM (PmCntL) | Km (PmCntM) [µM] | Ki (SaCntM [1]) [µM] | Ki (PaCntM [2]) [µM] | Km (SaCntM [3]) [µM] | Km (PaCntM [4]) [µM] | Km (SaCntM [5]) [µM] | Km (PaCntM [6]) [µM] |
| --- | --- | --- | --- | --- | --- | --- | --- | --- |
| N[C@H](Cc1c[nH]cn1)C(=O)O [D-histidine] | PmCntL uses D-His and not L-His |  |  |  |  |  |  |  |
| N[C@@H](CCN[C@@H](Cc1c[nH]cn1)C(=O)O)C(=O)O [yNA] |  | 7 ± 1 | 2300 ± 800 | 2400 ± 1000 | 47 ± 9 | 21 ± 7 |  |  |
| N[C@@H](CCN[C@H](Cc1c[nH]cn1)C(=O)O)C(=O)O [xNA] |  | 12 ± 1 |  |  |  |  | 23 ± 3 | 54 ± 20 |
